Data taken from patent publication EP0742015A1, “Prodrugs for beta-lactamase and uses thereof” (Bristol-Myers Squibb Company, priority 1990, dated 1992).

Key:
[1] = Stability of ADR-ceph in human plasma at 37°C, HPLC; assay type: in vitro ADME
Experimental: (§1) Stock solutions of the β-lactamase and lactamase-L6 conjugate were prepared in 0.05 M Hepes buffer (pH7). Aliquots of these stock solutions were added to solutions of ADR-ceph in human plasma thermostated at 37°C. The final concentration of ADR-ceph was 572 µg/ml in the β-lactamase experiment and 896 µg/ml in the L6-lactamase experiment; and the final concentrations of β-lactamase and L6-lactamase conjugate were 0.45 µg/ml and 5.4µg/ml, respectively. Aliquots were withdrawn periodically and were added to two volumes of cold methanol (4°C). The precipitated proteins were removed by centrifugation. The supernatants were analyzed by HPLC using a Waters Associates C18 Radial Pak cartridge (8x100 mm). The column was eluted at 2.0 mL/min with a mobile phase of 60% of 0.05 M ammonium phosphate (pH 6.5) containing 5% acetonitrile and 40% of a mixture of acetonitrile-water (80:20). The peaks were detected by uv at 254 nm. In these assays the respective retention times for adriamycin and ADR-ceph were 3.8 and 7.5 minutes.
(§2) Using the same HPLC assay described in Example 2.2.2 the respective half lives at 37°C of ADR-ceph in rat plasma, buffer at pH 7.4, and human plasma are 8, 20 and ≧ 12 hours (Figure 9).

[2] = Stability of ADR-ceph in buffer at pH 7.4 at 37°C, HPLC; assay type: physicochemical; conditions: buffer at pH 7.4, 37°C
Experimental: as §1, §2

[3] = target: L6-lactamase (B. cereus) conjugate (Bacillus cereus, UniProt P04190); assay type: biochemical; conditions: pH 7
[4] = target: Sigma penicillinase from E. cloacae (Enterobacter cloacae, UniProt P05364); assay: Specific activity of β-lactamases for cephalosporin substrates, spectrophotometric; assay type: biochemical; conditions: substrate 100 µg/ml, 0.05 M phosphate buffer, pH 7.0, 25°C
Experimental: The specific activities of selected β-lactamases for ADR-ceph were examined. These enzymes were B. cereus β-lactamase, lactamase-L6 conjugate, Sigma penicillinase from E. cloacae (Sigma Chemical) and P99 cephalosporinase from E. cloacae. All enzymes were diluted to give protein concentrations of 0.20 ± 0.01 mg/ml (with respect to β-lactamase). Assays were performed spectrophotometrically to 0.05 M phosphate buffer, pH 7.0, at 25°C. Cephaloridine was used as a reference substrate for the enzymes.
P99 cephalosporinase had the highest specific activity for both cephaloridine and ADR-ceph. […] The Sigma "penicillinase" had the lowest activity of all the preparations. […] The differences in activity is probably due to differences in purity between the two preparations.

[5] = target: β-lactamase from B. cereus (Bacillus cereus, UniProt P04190); assay: Release of adriamycin from ADR-ceph in human plasma at 37°C, HPLC; assay type: biochemical; conditions: human plasma 37°C, ADR-ceph 572 µg/ml, β-lactamase 0.45 µg/ml
Experimental: The ability of the purified β-lactamase from B. cereus and the lactamase-L6 conjugate to catalyze the release of adriamycin from ADR-ceph was evaluated in human plasma at 37°C.
as §1

[6] = Stability of ADR-ceph in rat plasma at 37°C, HPLC; assay type: in vitro ADME
Experimental: as §1, §2

[7] = target: P99 cephalosporinase from E. cloacae (Enterobacter cloacae, UniProt P05364); assay type: biochemical; conditions: pH 7
[8] = target: B. cereus β-lactamase (Bacillus cereus, UniProt P04190); assay type: biochemical; conditions: substrate 100 µg/ml, 0.05 M phosphate buffer, pH 7.0, 25°C
[9] = test system: Balb C nu/nu mice; conditions: mouse, in vivo, iv
[10] = test system: E. coli β-lactamase; assay: Hydrolysis of CM by commercially available β-lactamase in PBS at 37° C, HPLC; assay type: biochemical; conditions: CM 50 µM in PBS at 37° C, 3 µg total protein/ml, partially purified enzyme
[11] = target: T1, B. cereus β-lactamase (II) (Bacillus cereus, UniProt P04190); assay type: biochemical
T1 sequence (P04190 31-257): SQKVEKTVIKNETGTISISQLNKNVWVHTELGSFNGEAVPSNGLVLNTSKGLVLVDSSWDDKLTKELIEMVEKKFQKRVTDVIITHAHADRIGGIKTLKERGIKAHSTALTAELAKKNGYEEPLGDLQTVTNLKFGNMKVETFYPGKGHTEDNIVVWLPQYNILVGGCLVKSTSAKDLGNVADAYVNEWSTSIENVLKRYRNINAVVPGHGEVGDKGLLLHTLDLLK

[12] = test system: H2981 lung cells; assay: In vitro cytotoxicity of CM with L6-β-lactamase conjugate, 3H-thymidine incorporation; conditions: cells exposed to L6-β-lactamase conjugate 1 hr at 37° C, washed, then CM
[13] = target: T2, B. cereus β-lactamase (Bacillus cereus, UniProt P04190); assay type: biochemical; conditions: CM 50 µM in PBS at 37° C, 3 µg total protein/ml, partially purified enzyme
T2 construct: purchased Sigma Chem. Co
T2 sequence (P04190 31-257): T1 sequence (P04190 31-257)

[14] = in vitro; conditions: mouse, plasma
[15] = test system: human lung adenocarcinoma cell line, H2981
[16] = physchem; conditions: imdm cell growth medium
[17] = target: T3, BCP II (Bacillus cereus penicillinase) (Bacillus cereus, UniProt P04190); assay: Conversion of the cephalosporin-mitomycin prodrug by BCP II in PBS, followed by TLC; assay type: biochemical; conditions: 0.3 mg compound in PBS (1 mL), BCP II 10 µL (4.1 mg/mL)
T3 sequence (P04190 31-257): T1 sequence (P04190 31-257)
Experimental: To a greyish blue solution of the title compound (0.3 mg) in PBS (1 mL) was added BCP II (Bacillus cereus penicillinase, 10 µL, protein concentration = 4.1 mg/mL). Immediately the color changed to blue.

P99 cephalosporinase from E. cloacae, sequence (P05364 21-381): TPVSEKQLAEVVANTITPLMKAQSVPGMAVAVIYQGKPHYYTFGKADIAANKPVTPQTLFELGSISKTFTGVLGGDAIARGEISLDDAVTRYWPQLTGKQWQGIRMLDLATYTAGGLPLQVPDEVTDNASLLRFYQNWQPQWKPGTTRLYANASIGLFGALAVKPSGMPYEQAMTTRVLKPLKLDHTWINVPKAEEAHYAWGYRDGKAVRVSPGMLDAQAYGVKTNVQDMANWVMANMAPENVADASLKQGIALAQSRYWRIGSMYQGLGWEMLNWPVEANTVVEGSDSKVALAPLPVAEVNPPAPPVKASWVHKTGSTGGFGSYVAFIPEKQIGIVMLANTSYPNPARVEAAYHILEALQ
Sigma penicillinase from E. cloacae, sequence (P05364 21-381): as above

COc1cccc2c1C(=O)c1c(O)c3c(c(O)c1C2=O)C[C@@](O)(C(=O)CO)C[C@@H]3O[C@H]1C[C@H](NC(=O)OCC2=C(C(=O)O)N3C(=O)C(NC(=O)Cc4ccccc4)C3SC2)[C@H](O)[C@H](C)O1 (some centres unmarked) [ADR-ceph, 3-[[(N-adriamycinyl)carbonyloxy]methyl]-7-phenylacetamido-8-oxo-5-thia-1-azabicyclo[4.2.0]oct-2-ene-2-carboxylic acid]
half-life [1]: ≥ 12 h
half-life [2]: 20 h
Hydrolysis, µmoles/min/µg protein [3]: 0.021 µmoles/min/µg protein
Hydrolysis, µmoles/min/µg protein [4]: 0.0030 µmoles/min/µg protein
hydrolysis of ADR-ceph, release of adriamycin [5]: efficiently hydrolyzed
half-life [6]: 8 h
Hydrolysis, µmoles/min/µg protein [7]: 0.060 µmoles/min/µg protein
Hydrolysis, µmoles/min/µg protein [8]: 0.016 µmoles/min/µg protein

O=C(Cc1ccccc1)NC1C(=O)N2C(C(=O)O)=C(COC(=O)Nc3ccc(N(CCCl)CCCl)cc3)CSC12 (centres unmarked) [CM]
difference in toxicity on a molar basis, CM versus PDM [9]: > 11 fold
dose up to which no toxicity was observed [9]: ≥ 900 µg/injection
hydrolysis of CM, release of PDM [10]: able to hydrolyze CM to release the nitrogen mustard, PDM
Km ([11]; CM as substrate): 25 µM
Vmax ([11]; CM as substrate): 250 µmol/min/mg
cytotoxic effect of CM with the antibody-β-lactamase conjugate [12]: enhanced cytotoxic effect
hydrolysis of CM, release of PDM [13]: able to hydrolyze CM to release the nitrogen mustard, PDM
metabolised at 2.5 h, 500 µM [14]: 12%
IC50 [15]: ~100 µM
cytotoxic activity of CM with purified B. cereus β-lactamase (II) [15]: enhanced the cytotoxic activity of CM to the level observed for PDM
enhancement of the activity of CM by β-lactamases [15]: 50-100 fold
half-life at 500 µM [16]: 0.5 h

O=C(Cc1cccs1)N[C@@H]1C(=O)N2C(C(=O)[O-])=C(C[n+]3ccccc3)CS[C@H]12 [Cephaloridine, reference compound]
Hydrolysis, µmoles/min/µg protein [3]: 0.045 µmoles/min/µg protein
Hydrolysis, µmoles/min/µg protein [4]: 0.026 µmoles/min/µg protein
Hydrolysis, µmoles/min/µg protein [7]: 0.30 µmoles/min/µg protein
Hydrolysis, µmoles/min/µg protein [8]: 0.038 µmoles/min/µg protein

O=C(O)CN(CCN(CC(=O)O)CC(=O)O)CC(=O)O [EDTA, reference compound]
inhibition of the enzyme activity [11]: completely inhibited

COC12C(COC(N)=O)C3=C(C(=O)C(C)=C(NCC4=C(C(=O)O)N5C(=O)C(NC(=O)Cc6ccccc6)C5SC4)C3=O)N1CC1NC12 (centres unmarked) [Example 1.2.5, 7-Phenylacetamido-3-(N^7-mitomycin C)-8-oxo-5-thia-1-azabicyclo[4.2.0]oct-2-ene-2-carboxylic acid]
conversion to mitomycin C [17]: complete conversion to mitomycin C
